# From patent US20210145802A1, “THERAPY FOR OPHTHALMOLOGICAL CONDITIONS” (WREN THERAPEUTICS LIMITED, priority 2018, published 2021)
# Biological target: T1, Aβ42 (Homo sapiens, UniProt P05067)
# T1 construct: […]; made in house; host or cells: E. coli BL21 Gold (DE3)
# Assay: ThT kinetic assay of Aβ42 fibril formation (unseeded)
# Type: biochemical
# Details: 2 μM Aβ42; 5× drug:protein concentration
# From the text: The recombinant Aβ(M1-42) peptide ([…]-SNKGAIIGLMVGGVVIA [SEQ ID NO: 1]), here called Aβ42, was expressed in the E. coli BL21 Gold (DE3) strain (Stratagene, CA, U.S.A.) and purified as described previously with slight modifications. Briefly, the purification procedure involved sonication of E. coli cells, dissolution of inclusion bodies in 8 M urea, and ion exchange in batch mode on diethylaminoethyl cellulose resin and lyophylization. The lyophilized fractions were further purified using Superdex 75 HR 26/60 column (GE Healthcare, Buckinghamshire, U.K.) and eluates were analyzed using SDS-PAGE for the presence of the desired protein product. The fractions containing the recombinant protein were combined, frozen using liquid nitrogen, and lyophilized again.
# Except for Netoglitazone, which was custom synthesised by GVK BIO, all small molecules were purchased with a purity greater than 99%. Small molecules were first solubilized in 100% DMSO to a concentration of 5 mM, and then diluted in the peptide solution to reach a final DMSO concentration of maximum 1-3%. We verified that the addition of DMSO in the reaction mixture has no effect on Aβ42 aggregation.
# Solutions of monomeric peptides were prepared by dissolving the lyophilized Aβ42 peptide in 6 M GuHCl. Monomeric forms were purified from potential oligomeric species and salt using a Superdex 75 10/300 GL column (GE Healthcare) at a flowrate of 0.5 mL/min, and were eluted in 20 mM sodium phosphate buffer, pH 8 supplemented with 200 μM EDTA and 0.02% NaN3. The centre of the peak was collected, and the peptide concentration was determined from the absorbance of the integrated peak area using ε280=1490 L mol^−1 cm^−1. The obtained monomer was diluted with buffer to the desired concentration and supplemented with 20 μM Thioflavin T (ThT) from a 1 mM stock. All samples were prepared in low binding Eppendorf tubes on ice using careful pipetting to avoid introduction of air bubbles. Each sample was then pipetted into multiple wells of a 96-well half-area, low-binding, clear bottom and PEG coating plate (Corning 3881), 80 μL per well. Aβ42 kinetics have been performed in the absence or the presence of Netoglitazone, Mitoglitazone, Rosiglotazone, Rivoglitazone, Pioglitazone, Ciglitazone, Englitazone, Darglitazone, Troglitazone and B alaglitazone.
# T1 sequence (P05067 671-713): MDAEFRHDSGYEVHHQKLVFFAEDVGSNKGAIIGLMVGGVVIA
row,SMILES,delay of Aβ42 aggregation
1,Cc1oc(-c2ccccc2)nc1CCC(=O)c1ccc(CC2SC(=O)NC2=O)cc1 (stereo not shown) [Darglitazone],observed to delay
2,Cn1c(COc2ccc(CC3SC(=O)NC3=O)cc2)nc2ccccc2c1=O (stereo not shown) [Balaglitazone],little to no delay
3,CCc1ccc(C(=O)COc2ccc(CC3SC(=O)NC3=O)cc2)nc1 (stereo not shown) [Mitoglitazone],little to no delay
4,COc1ccc2nc(COc3ccc(CC4SC(=O)NC4=O)cc3)n(C)c2c1 (stereo not shown) [Rivoglitazone],little to no delay
